{"source": "patent US6087376A", "about": "(priority 1998, dated 2000)", "key": {"[1]": {"test_system": "rat striatal slices preloaded with [3H]DA", "assay": "[3H]DA release assay: drug-evoked [3H]overflow / fractional release from rat striatal slices preloaded with [3H]DA", "assay_type": "cell-based", "method": "Rat striata were rapidly dissected on ice and were sliced using a McIlwain tissue chopper. […] Slices were rinsed with 15 mL fresh buffer and then incubated in fresh buffer containing 0.1 μM [^3 H]DA (6-8 slices/3 mL) for an additional 30 min. Subsequently, slices were rinsed with 15 mL fresh buffer and transferred to a glass superfusion chamber. […] After 60 min of superfusion when basal outflow was stabilized, two 5-min samples (5 mL) were collected to determine basal [^3 H]outflow.\nThe concentration-response for each drug was determined using a repeated-measures design.\nThe pH and volume of the solubilized tissue samples were adjusted to those of the superfusate samples.\nFractional release for each superfusate sample was calculated by dividing the tritium collected in each sample by the total tritium present in the tissue at the time of sample collection. Fractional release was expressed as a percentage of total tritium in the tissue at the time of sample collection. Basal outflow was calculated from the average of the tritium collected in the two 5-min samples just before the addition of drug.\nInhibition of synaptosomal and vesicular [^3 H]DA uptake were analyzed by repeated-measures, one-way ANOVA, and by an iterative nonlinear least-squares curve-fitting program (GraphPAD-PRIZM; GraphPAD, San Diego, Calif.) to obtain IC50 values. Dunnett's post hoc test was used to compare treatment means to a single control mean. Also, Duncan's New Multiple Range Test or Fisher's LSD post hoc analysis were used to compare pairs of treatment means. Duncan's New Multiple Range Test was used when significant one-way ANOVA's were obtained or when significant main effects were obtained in the two-way ANOVA's. Fisher's LSD post hoc analysis is a more conservative test, which takes into account error which cumulates during multiple comparisons of pairs of means. Fisher's LSD analysis was used when the interaction term was significant in the two-way ANOVAs, specifically in the post hoc analysis of drug×time interactions. Statistical significance was reached when P<0.05 (two-tailed, unless otherwise indicated)."}, "rat striatum": {"test_system": "rat striatum", "assay": "Striatal DA and DOPAC content after in vivo administration of lobeline", "description": "Male Sprague-Dawley rats (200-250 g) were obtained from Harlan Laboratories (Indianapolis, Ind.) and were housed two per cage with free access to food and water in the Division of Lab Animal Resources at the College of Pharmacy at the University of Kentucky. Experimental protocols involving the animals were in strict accordance with the NIH Guide for the Care and Use of Laboratory Animals and were approved by the Institutional Animal Care and Use Committee at the University of Kentucky.\nRats were killed 24 hrs after the last injection and striata were obtained immediately for determination of endogenous DA and DOPAC content. […] Striata were obtained for endogenous DA and DOPAC content determination 21 days after osmotic minipump implantation. Lobeline dose was expressed in terms of mg of lobeline hemisulfate salt per kg body weight.\n(§1) An aliquot (500 μL) of 0.1 M perchloric acid (pH 1.0) containing 0.14-0.29 μM 3,4-dihydroxybenzylamine hydrobromide (DHBA, internal standard) was added to 100 mg of striatum and the mixture was sonicated with an Ultrasonic Processor (40-Watt Model, Sonics & Materials, Danbury, Conn.). The homogenate was centrifuged at 30,000×g for 10 min at 4° C., and the supernatant was filtered (0.2 μm nylon membrane). An aliquot (50 μL) of the filtrate (1:1, 1:50, 1:100, 1:200 or 1:500 dilution with 0.1 M perchloric acid) was injected onto the high pressure liquid chromatograph with electrochemical detection (HPLC-EC) system. The HPLC-EC system consisted of syringe loading injector (Model 7725, Rheodyne L. P., Cotati, Calif.), Beckman Model 116 HPLC pump (Beckman, Fullerton, Calif.), ESA ODS ultrasphere C18 reverse-phase column ([…]×75 mm, 3 micron particle size, ESA, Bedford, Mass.), and an ESA 5100A coulometric electrochemical detector with a model 5011 detector cell (E1=+0.05 V, E2=+0.32 V). The eluent was 6% acetonitrile, 10 μM EDTA, 1.4 mM 1-octane-sulfonic acid and 76 mM sodium phosphate monobasic (pH 3.1). All separations were performed at room temperature at a flow rate of 1 ml/min. Complete separation of DA and DOPAC and reequilibration of the system required 9 min. The retention time of DA, DOPAC and DHBA standards was used to identify the relevant peak. Peak heights were used to calculate the detected amount of compound based on standard curves. The detection limit of DA and DOPAC was 0.2 and 0.05 pg/50 μL injected, respectively. Recovery of internal standard was routinely 75%."}, "[2]": {"test_system": "locomotor activity in rats", "settings": "rat, in vivo; cited from earlier work"}, "learning and memory": {"test_system": "learning and memory", "settings": "in vivo; cited from earlier work"}, "[3]": {"test_system": "mouse striatal synaptosomes", "settings": "cited from earlier work"}, "[4]": {"settings": "cited from earlier work"}, "[5]": {"test_system": "tobacco smoking cessation", "settings": "short-term use as smoking deterrent; cited from earlier work"}, "[6]": {"test_system": "nicotinic receptors in mouse brain", "settings": "in vivo; cited from earlier work"}, "rat striatal slices": {"test_system": "rat striatal slices", "assay": "Endogenous DA and DOPAC content in striatal slices following superfusion with lobeline", "assay_type": "cell-based", "method": "Data are presented as mean±S.E. ng/mg protein. *P<0.05, different from control, P<0.05, **P<0.001, different from control; Dunnett's post hoc test. n=8 rats.\nAt the end of the superfusion experiment, slices were processed in the endogenous DA and DOPAC content assay described below.\nas §1"}, "anesthetized rats": {"test_system": "anesthetized rats", "settings": "urethane and pentobarbital anesthetized rats; cited from earlier work"}, "[7]": {"settings": "chronic, 30 mg/kg/day s.c. osmotic minipump, 21 days"}, "[8]": {"settings": "intermittent, 3 mg/kg s.c. once daily for 10 days"}, "[9]": {"settings": "intermittent, 10 mg/kg s.c. once daily for 10 days"}}}
{"smiles": "CN1[C@@H](CC(=O)c2ccccc2)CCC[C@H]1C[C@H](O)c1ccccc1", "note": "[Lobeline, 2-[G-(β-hydroxyphenethyl)-1-methyl-2-piperidyl]-acetophenone]", "values": [{"measurement": "effect on fractional release", "setting": "[1]; 3 μM, 15 and 20 min after addition", "result": "significant increase in fractional release"}, {"measurement": "effect on fractional release (low concentrations)", "setting": "[1]; 0.01-1 μM, entire superfusion period", "result": "did not significantly increase fractional release"}, {"measurement": "effect on fractional release (high concentrations)", "setting": "[1]; 10-100 μM, from 10 min after addition to end", "result": "significantly increased"}, {"measurement": "calcium-dependency of [3H]overflow", "setting": "[1]; calcium-free buffer vs control", "result": "not altered"}, {"measurement": "effect on [3H]overflow compared to nicotine", "setting": "[1]; higher concentrations (10-100 μM)", "result": "8-34 fold"}, {"measurement": "time of peak effect after start of exposure", "setting": "[1]; lobeline", "result": "10 to 20", "unit": "min"}, {"measurement": "total [3H]overflow", "setting": "[1]; lobeline 0.1 μM, calcium-free buffer with 0.5 mM EGTA", "result": "0 ± 0"}, {"measurement": "total [3H]overflow", "setting": "[1]; lobeline 0.1 μM, control buffer", "result": "0.6 ± 0.4"}, {"measurement": "total [3H]overflow", "setting": "[1]; lobeline 1 μM, calcium-free buffer with 0.5 mM EGTA", "result": "2.9 ± 0.2"}, {"measurement": "total [3H]overflow", "setting": "[1]; lobeline 1 μM, control buffer", "result": "2.0 ± 0.6"}, {"measurement": "total [3H]overflow", "setting": "[1]; lobeline 10 μM, calcium-free buffer with 0.5 mM EGTA", "result": "45.0 ± 4.2"}, {"measurement": "total [3H]overflow", "setting": "[1]; lobeline 10 μM, control buffer", "result": "31.9 ± 2.2"}, {"measurement": "peak fractional release", "setting": "[1]; lobeline 30 μM", "result": "approximately 15 % of total tritium in the slice"}, {"measurement": "peak fractional release", "setting": "[1]; lobeline 100 μM", "result": "~30 % of total tritium in the slice"}, {"measurement": "total [3H]overflow", "setting": "[1]; lobeline 100 μM, calcium-free buffer with 0.5 mM EGTA", "result": "185.0 ± 12.0"}, {"measurement": "total [3H]overflow", "setting": "[1]; lobeline 100 μM, control buffer", "result": "198.0 ± 20"}, {"measurement": "fractional release over the remainder of the superfusion period", "setting": "[1]; lobeline 30 and 100 μM", "result": "10-20 % of total tritium in the slice"}, {"measurement": "minimal effective concentration", "setting": "[1]; read-out: lowest concentration which evoked a significant increase in [3H]overflow", "result": 1, "unit": "µM"}, {"measurement": "striatal DA content", "setting": "rat striatum; acute, 1 mg/kg s.c., 1 hr", "result": "756 ± 111", "unit": "ng/mg protein"}, {"measurement": "striatal DOPAC content", "setting": "rat striatum; acute, 1 mg/kg s.c., 1 hr", "result": "81 ± 12", "unit": "ng/mg protein"}, {"measurement": "striatal DA content", "setting": "rat striatum; acute, 3 mg/kg s.c., 1 hr", "result": "761 ± 103", "unit": "ng/mg protein"}, {"measurement": "striatal DOPAC content", "setting": "rat striatum; acute, 3 mg/kg s.c., 1 hr", "result": "89 ± 15", "unit": "ng/mg protein"}, {"measurement": "striatal DA content", "setting": "rat striatum; acute, 10 mg/kg s.c., 1 hr", "result": "841 ± 76", "unit": "ng/mg protein"}, {"measurement": "striatal DOPAC content", "setting": "rat striatum; acute, 10 mg/kg s.c., 1 hr", "result": "82 ± 8", "unit": "ng/mg protein"}, {"measurement": "striatal DA content", "setting": "rat striatum; acute, 30 mg/kg s.c., 1 hr", "result": "665 ± 126", "unit": "ng/mg protein"}, {"measurement": "striatal DOPAC content", "setting": "rat striatum; acute, 30 mg/kg s.c., 1 hr", "result": "72 ± 10", "unit": "ng/mg protein"}, {"measurement": "effect on striatal DA or DOPAC content in vivo", "setting": "rat striatum; any dose or treatment regimen", "result": "did not significantly alter"}, {"measurement": "striatal DA content", "setting": "rat striatum; [7]", "result": "856 ± 144", "unit": "ng/mg protein"}, {"measurement": "striatal DOPAC content", "setting": "rat striatum; [7]", "result": "62 ± 10", "unit": "ng/mg protein"}, {"measurement": "striatal DA content", "setting": "rat striatum; [8]", "result": "778 ± 27", "unit": "ng/mg protein"}, {"measurement": "striatal DOPAC content", "setting": "rat striatum; [8]", "result": "57 ± 12", "unit": "ng/mg protein"}, {"measurement": "striatal DA content", "setting": "rat striatum; [9]", "result": "800 ± 41", "unit": "ng/mg protein"}, {"measurement": "striatal DOPAC content", "setting": "rat striatum; [9]", "result": "57 ± 3", "unit": "ng/mg protein"}, {"measurement": "locomotor activity", "setting": "[2]", "result": "does not increase locomotor activity"}, {"measurement": "learning and memory", "setting": "learning and memory", "result": "improvement of learning and memory"}, {"measurement": "DA release from superfused striatal synaptosomes", "setting": "[3]", "result": "increase DA release"}, {"measurement": "pKa", "setting": "[4]", "result": 8.3}, {"measurement": "acute toxicity", "setting": "[5]", "result": "nausea, severe heartburn and dizziness"}, {"measurement": "number of nicotinic receptors after chronic treatment", "setting": "[6]", "result": "did not increase the number of nicotinic receptors"}, {"measurement": "DOPAC overflow from rat striatal slices", "setting": "rat striatal slices", "result": "DOPAC overflow from rat striatal slices is observed"}, {"measurement": "effect on DA or DOPAC content in superfused slices", "setting": "rat striatal slices; lobeline 0.1-10 μM, 60 min", "result": "did not alter DA or DOPAC content"}, {"measurement": "effect on endogenous DA content in superfused slices", "setting": "rat striatal slices; lobeline 30-100 μM, 60 min", "result": "significantly depleted endogenous DA content"}, {"measurement": "effect on endogenous DOPAC content in superfused slices", "setting": "rat striatal slices; lobeline 30-100 μM, 60 min", "result": "increased DOPAC content"}, {"measurement": "cardiovascular effects", "setting": "anesthetized rats", "result": "bradycardia and hypotension"}]}
